Bounds are passed on as bounds.

This assay concerns the target Free fatty acid receptor 1 (Homo sapiens, UniProt O14842). As to the kind of experiment: GPR40 FDSS Assay. The conditions noted are these: 37 °C. Here is the method: Human embryonic kidney (HEK293) cells expressing human GPR40 receptors were grown in Dulbecco modified Eagles medium (DMEM)/F12 media supplemented with 10% fetal FBS and glutamine. Changes in ligand-induced calcium-dependent intracellular fluorescence were measured with a fluorometric plate reader (FDSS; Hamamatsu Corp., Bridgewater, NJ).

Chain of Free fatty acid receptor 1 (O14842 whole entry): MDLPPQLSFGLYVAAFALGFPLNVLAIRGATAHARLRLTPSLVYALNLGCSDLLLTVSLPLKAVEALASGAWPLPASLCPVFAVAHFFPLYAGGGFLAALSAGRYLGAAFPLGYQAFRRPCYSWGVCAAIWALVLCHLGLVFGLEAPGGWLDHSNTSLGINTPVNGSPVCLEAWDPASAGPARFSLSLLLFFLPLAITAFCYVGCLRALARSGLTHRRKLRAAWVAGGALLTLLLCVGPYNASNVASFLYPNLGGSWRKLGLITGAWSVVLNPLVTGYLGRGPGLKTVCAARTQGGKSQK

As a reminder, the EC50 is the midpoint of the concentration-response curve. Read a high EC50 as a need for much substance. `CCCCOc1ccc(C(CC(=O)O)c2cccs2)cc1` (stereo not given) [3-(4-butoxyphenyl)-3-(thiophen-2-yl)propanoic acid] registered an EC50 of 1290 nM. `CCCCOc1ccc(C(CC(=O)O)c2ccc(C(F)(F)F)cc2)cc1` (stereo not given) [3-(4-butoxyphenyl)-3-[4-(trifluoromethyl)phenyl]propanoic acid] came in with an EC50 above 10000 nM. `CCCCOc1ccc(C(CC(=O)O)c2ccccc2)cc1` (stereo not given) [3-(4-butoxyphenyl)-3-phenylpropanoic acid] had an EC50 of 1200 nM. In other words, the single-digit micromolar range. The molecule `CCCCCOc1cccc(C(CC(=O)O)c2ccccc2)c1` (stereo not given) [3-[3-(pentyloxy)phenyl]-3-phenylpropanoic acid] showed an EC50 above 10000 nM. `CCC(C)COc1ccc(C(CC(=O)O)c2ccccc2)cc1` (stereo not given) [3-[4-(2-methylbutoxy)phenyl]-3-phenylpropanoic acid] had a half-maximal effective concentration (EC50) of 300 nM. Regarding `CC(C)CCOc1ccc(C(CC(=O)O)c2ccccc2)cc1` (stereo not given) [3-[4-(3-methylbutoxy)phenyl]-3-phenylpropanoic acid], the EC50 amounted to 1860 nM. Molecule `CCCCCOc1ccc(C(CC(=O)O)c2ccccc2)cc1` (stereo not given) [3-[4-(pentyloxy)phenyl]-3-phenylpropanoic acid] displayed an EC50 of 2970 nM. As for `CCCOc1ccc(C(CC(=O)O)c2ccccc2)cc1` (stereo not given) [3-phenyl-3-(4-propoxyphenyl)propanoic acid], the figure is 4800 nM; as for `C/C=C/COc1ccc(C(CC(=O)O)c2ccccc2)cc1` (stereo not given) [3-{4-[(2E)-but-2-en-1-yloxy]phenyl}-3-phenylpropanoic acid], 2710 nM; as for `CCCCOc1ccc(C(CCCC(=O)O)c2ccccc2)cc1` (stereo not given) [5-(4-butoxyphenyl)-5-phenylpentanoic acid], above 10000 nM.

Values taken from BindingDB's records for doi:10.1021/jm070130j (Johnson & Johnson Pharmaceutical, 2007).
